Consider three molecules from patent publication US20250057819A1, “DRUG COMBINATIONS FOR INHIBITING CORONAVIRUS REPLICATION” (priority 2021, published 2025).

Structures can show the parent of a compound that is named as a salt. Where two headings read alike, the source gives them in different places.

Holding throughout (assay): microbe, parasite or virus in culture
Holding throughout (format): cell-based

The subject of one assay is SARS-CoV-2. The conditions noted are these: read-out: SARS-CoV-2 (Vido) EC50.
In another assay the test system is SARS-CoV-2 (Alpha). The conditions noted are these: Huh7.5 cells, monotherapy.
A further assay deals with SARS-CoV-2 (Beta). The conditions noted are these: Huh7.5 cells, monotherapy.
[1] abbreviates: Severe acute respiratory syndrome coronavirus 2, Huh7.5.
[2] abbreviates: Severe acute respiratory syndrome coronavirus 2.

The term EC50 denotes the concentration that produces a half-maximal response. With `CC(C)C(=O)OC[C@H]1O[C@@H](n2cc/c(=N\O)[nH]c2=O)[C@H](O)[C@@H]1O` [Molnupinavir], the 50% effective concentration (EC50) was found to be 90 nM in the assay with SARS-CoV-2, 60 nM in the assay with SARS-CoV-2 (Alpha) and 110 nM with SARS-CoV-2 (Beta).

As to `Cc1c(O)cccc1C(=O)N[C@@H](CSc1ccccc1)[C@H](O)CN1C[C@H]2CCCC[C@H]2C[C@H]1C(=O)NC(C)(C)C` [Nelfinavir mesylate], the figures for the EC50 in the assay with SARS-CoV-2 (setting [1]), in the assay on SARS-CoV-2 (Alpha) (setting [2]) and with SARS-CoV-2 (Beta) (setting [2]) were 1800 nM, 500 nM and 110 nM, respectively.

As to `CCN(CC)CCOc1ccc2c(c1)C(=O)c1cc(OCCN(CC)CC)ccc1-2` [Tilorone dihydrochloride], the EC50 was 930 nM in the assay with SARS-CoV-2 (setting [1]), 250 nM with SARS-CoV-2 (Alpha) (setting [2]) and 190 nM in the assay on SARS-CoV-2 (Beta) (setting [2]).
